Values of other authors, collected in US6437103B1, “Fatty acid analogs for diagnosis of coronary artery disease” (Biostream Inc., priority 1999, dated 2002).

System: myocardium
Details: background statement citing Goodman et al. 1984; Liefhold and Eisenhut 1986

For `O=C(O)CCCCCCCCCCCCCCc1ccc(I)cc1` [15-(p-iodophenyl)pentadecanoic acid], the myocardial uptake is listed as “moderate”.
